The values that follow come from article PMC9603476, “Desaturation of the Sphingofungin Polyketide Tail Results in Increased Serine Palmitoyltransferase Inhibition” (Microbiology Spectrum, 2022).

This assay concerns the target T1, SPT (serine palmitoyltransferase) (Sphingomonas paucimobilis, UniProt Q93UV0).
T1 construct: soluble homodimer
Put plainly: HPLC-HRMS of 3-ketodihydrosphingosine; coupled PPi assay. It is filed as biochemical. The note with it: pH 7.5, 37°C.

T1 sequence (Q93UV0 whole entry): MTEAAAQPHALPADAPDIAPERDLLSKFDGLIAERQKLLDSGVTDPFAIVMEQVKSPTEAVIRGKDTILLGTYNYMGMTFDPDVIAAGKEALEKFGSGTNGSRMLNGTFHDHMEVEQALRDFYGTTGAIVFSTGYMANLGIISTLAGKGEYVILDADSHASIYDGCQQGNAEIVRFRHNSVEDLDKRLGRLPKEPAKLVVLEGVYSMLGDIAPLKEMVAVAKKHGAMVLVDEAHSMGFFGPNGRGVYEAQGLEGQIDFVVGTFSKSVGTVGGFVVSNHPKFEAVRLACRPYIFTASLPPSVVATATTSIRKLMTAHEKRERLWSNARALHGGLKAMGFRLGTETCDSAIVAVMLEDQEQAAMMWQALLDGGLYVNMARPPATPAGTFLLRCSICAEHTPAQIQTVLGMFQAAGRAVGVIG

For `CCCCCCCCCCCCCCCC(=O)SCCNC(=O)CCNC(=O)[C@H](O)C(C)(C)COP(=O)(O)OP(=O)(O)OC[C@H]1O[C@@H](n2cnc3c(N)ncnc32)[C@H](O)[C@@H]1OP(=O)(O)O` [palmitoyl-CoA], the “HPLC-HRMS of 3-ketodihydrosphingosine; coupled PPi assay” value (5 mM serine, palmitoyl-CoA regenerated by FadD) was “we verified the production of 3-ketodihydrosphingosine by our SPT reaction”.

In the case of `N[C@@H](CO)C(=O)O` [serine], the “HPLC-HRMS of 3-ketodihydrosphingosine; coupled PPi assay” value (with palmitoyl-CoA regenerated by FadD, serine concentration varied) is given as “we verified the production of 3-ketodihydrosphingosine by our SPT reaction”.
